# Source: patent publication US4708956A, “3-position halogenated cephalosporin analogs and pharmaceutical compositions” (Kyowa Hakko Kogyo Co., Ltd., priority 1986, dated 1987)
# Where two headings read alike, the source gives them in different places.
# What was measured:
# Proteus morganii KY4298 = experiment: Heart Infusion Agar Dilution Method, minimum inhibitory concentration; assay type: cell-based; conditions: Morganella morganii
# Protocol: (§1) The activity is determined by the Heart Infusion Agar Dilution Method (pH 7.2).
# Proteus mirabilis 1287 = experiment: as above; assay type: cell-based; conditions: pH 7.2
# Protocol: as §1
# [1] = system: Klebsiella pneumoniae Y-60; experiment: as above; assay type: cell-based
# Protocol: as §1
# [2] = system: Staphylococcus aureus Smith; experiment: as above; assay type: cell-based; conditions: pH 7.2
# Protocol: as §1
# [3] = system: Staphylococcus epidermidis; experiment: as above; assay type: cell-based; conditions: pH 7.2
# Protocol: as §1
# [4] = system: Klebsiella pneumoniae 8045; experiment: as above; assay type: cell-based; conditions: pH 7.2
# Protocol: as §1
# Escherichia coli Juhl = experiment: as above; assay type: cell-based
# Protocol: as §1
# Pseudomonas putida F264 = experiment: as above; assay type: cell-based
# Protocol: as §1
# Escherichia coli NIHJC-2 = experiment: as above; assay type: cell-based
# Protocol: as §1
# Proteus rettgeri KY4289 = experiment: as above; assay type: cell-based; conditions: Providencia rettgeri
# Protocol: as §1
# Serratia marcescens T-55 = experiment: as above; assay type: cell-based
# Protocol: as §1
# Proteus vulgaris 6897 = experiment: as above; assay type: cell-based; conditions: pH 7.2
# Protocol: as §1
# [5] = system: Staphylococcus aureus 209-p; experiment: as above; assay type: cell-based
# Protocol: as §1
# [6] = system: Gram-positive and Gram-negative bacteria; conditions: J. Am. Chem. Soc., 96, 7584 (1974); J. Med. Chem., 20, 551 (1977); cited from earlier work
# [7] = system: Gram-positive and Gram-negative bacteria; experiment: antibacterial activity (general statements); assay type: cell-based; conditions: general or comparative statement
# [8] = Proteus morganii KY4298, Heart Infusion Agar Dilution Method, pH 7.2, read-out: Minimum Inhibitory Concentration
# [9] = Y60, Klebsiella pneumoniae Y-60, Heart Infusion Agar Dilution Method, pH 7.2, read-out: Minimum Inhibitory Concentration
# [10] = Escherichia coli Juhl, Heart Infusion Agar Dilution Method, pH 7.2, read-out: Minimum Inhibitory Concentration
# [11] = Pseudomonas putida F264, Heart Infusion Agar Dilution Method, pH 7.2, read-out: Minimum Inhibitory Concentration
# [12] = NIHJC2, Escherichia coli NIHJC-2, Heart Infusion Agar Dilution Method, pH 7.2, read-out: Minimum Inhibitory Concentration
# [13] = Proteus rettgeri KY4289, Heart Infusion Agar Dilution Method, pH 7.2, read-out: Minimum Inhibitory Concentration
# [14] = T55, Serratia marcescens T-55, Heart Infusion Agar Dilution Method, pH 7.2, read-out: Minimum Inhibitory Concentration
# [15] = Staphylococcus aureus 209-p, Heart Infusion Agar Dilution Method, pH 7.2, read-out: Minimum Inhibitory Concentration
SMILES,MIC (Proteus morganii KY4298; [8]),MIC (Proteus mirabilis 1287),"MIC [1, 9]",MIC [2],MIC [3],MIC [4],MIC (Escherichia coli Juhl; [10]),MIC (Pseudomonas putida F264; [11]),MIC (Escherichia coli NIHJC-2; [12]),MIC (Proteus rettgeri KY4289; [13]),MIC (Serratia marcescens T-55; [14]),MIC (Proteus vulgaris 6897),"MIC [5, 15]",also measured
CC(=O)OCC1=C(C(=O)O)N2C(=O)C(NC(=O)Cc3cccs3)C2CC1 (racemic) [(i)-1-carbacephalotin],–,–,–,–,–,–,–,–,–,–,–,–,–,"antibacterial activity, in words (literature) [6]: having antibacterial activity"
"CC1=C(C(=O)O)N2C(=O)[C@@H](NC(=O)[C@H](N)c3ccccc3)[C@H]2SC1 [f, Cephalexin, reference compound]",–,–,–,–,–,–,–,–,–,–,–,–,–,"MIC (Proteus morganii KY4298; KY4298, pH 7.2, read-out: Minimum Inhibitory Concentration): > 100 µg/mL; MIC ([1]; Klebsiella pneumoniae, Y60, pH 7.2, read-out: Minimum Inhibitory Concentration): 50 µg/mL; MIC (Escherichia coli Juhl; Escherichia coli, pH 7.2, read-out: Minimum Inhibitory Concentration): 12.5 µg/mL; MIC (Pseudomonas putida F264; Pseudomonas putida, F264, pH 7.2, read-out: Minimum Inhibitory Concentration): > 100 µg/mL; MIC (Escherichia coli NIHJC-2; Escherichia coli, NIHJC2, pH 7.2, read-out: Minimum Inhibitory Concentration): 12.5 µg/mL; MIC (Proteus rettgeri KY4289; KY4289, pH 7.2, read-out: Minimum Inhibitory Concentration): > 100 µg/mL; MIC (Serratia marcescens T-55; Serratia marcescens, T55, pH 7.2, read-out: Minimum Inhibitory Concentration): 50 µg/mL; MIC ([5]; Staphylococcus aureus, 209P, pH 7.2, read-out: Minimum Inhibitory Concentration): 0.2 µg/mL"
"N[C@@H](C(=O)N[C@@H]1C(=O)N2C(C(=O)O)=C(Cl)CC[C@H]12)c1ccccc1 [a, (6R, 7S) 7-(R)-phenylglycinamido-3-chloro-1-azabicyclo[4,2,0]oct-2-en-8-on-2-carboxylic acid]",> 100 µg/mL,–,–,–,–,–,–,100 µg/mL,–,100 µg/mL,–,100 µg/mL,–,"antibacterial (antimicrobial) activity, in words [7]: greater antimicrobial activity"

# Further lines, with some results ahead:
MIC (Proteus morganii KY4298; [8]),MIC (Proteus mirabilis 1287),"MIC [1, 9]",MIC [2],MIC [3],MIC [4],MIC (Escherichia coli Juhl; [10]),MIC (Pseudomonas putida F264; [11]),MIC (Escherichia coli NIHJC-2; [12]),MIC (Proteus rettgeri KY4289; [13]),MIC (Serratia marcescens T-55; [14]),MIC (Proteus vulgaris 6897),"MIC [5, 15]",SMILES,also measured
> 100 µg/mL,3.12 µg/mL,12.5 µg/mL,1.56 µg/mL,1.56 µg/mL,0.78 µg/mL,1.56 µg/mL,100 µg/mL,1.56 µg/mL,100 µg/mL,6.25 µg/mL,100 µg/mL,0.4 µg/mL,"N[C@@H](C(=O)N[C@@H]1C(=O)N2C(C(=O)O)=C(Cl)CC[C@H]12)c1ccc(O)cc1 [e, (6R, 7S) 7-(R)-p-hydroxyphenyl-glycinamido-3-chloro-1-azabicyclo[4,2,0]oct-2-en-8-on-2-carboxylic acid]",–
> 100 µg/mL,12.5 µg/mL,50 µg/mL,12.5 µg/mL,25 µg/mL,12.5 µg/mL,50 µg/mL,> 100 µg/mL,50 µg/mL,25 µg/mL,> 100 µg/mL,25 µg/mL,6.25 µg/mL,"CO/N=C(\C(=O)N[C@@H]1C(=O)N2C(C(=O)O)=C(Cl)CC[C@H]12)c1ccco1 (relative stereo) [c, cis-7-[2-(2-furyl)-2-syn-methoxyiminoacetamido]-3-chloro-1-azabicyclo[4,2,0]oct-2-en-8-on-2-carboxylic acid]",–
3.12 µg/mL,1.56 µg/mL,12.5 µg/mL,1.56 µg/mL,1.56 µg/mL,0.1 µg/mL,3.12 µg/mL,25 µg/mL,3.12 µg/mL,3.12 µg/mL,3.12 µg/mL,≤ 0.05 µg/mL,0.4 µg/mL,"CCN1CCN(C(=O)N[C@@H](C(=O)N[C@@H]2C(=O)N3C(C(=O)O)=C(Cl)CC[C@H]23)c2ccccc2)C(=O)C1=O [b, (6R, 7S) 7-[(R)-2-phenyl-2-(4-ethyl-2,3-dioxopiperadinylcarbonylamino)-acetamido]-3-chloro-1-azabicyclo[4,2,0]oct-2-en-8-on-2-carboxylic acid]",–
0.4 µg/mL,0.1 µg/mL,0.78 µg/mL,50 µg/mL,50 µg/mL,≤ 0.05 µg/mL,0.4 µg/mL,3.12 µg/mL,0.78 µg/mL,0.1 µg/mL,1.56 µg/mL,0.4 µg/mL,50 µg/mL,"CO/N=C(\C(=O)N[C@@H]1C(=O)N2C(C(=O)O)=C(Cl)CC[C@H]12)c1csc(N)n1 (relative stereo) [d, (±)-cis-7-[2-(2-aminothiazole-4-yl)-2-syn-methoxyiminoacetamido]-3-chloro-1-azabicyclo[4,2,0]oct-2en-8-on-2-carboxylic acid]",–
